Among the data in ChEMBL document CHEMBL1909046, “DrugMatrix in vitro pharmacology data” are IC50 and Ki values, retold here.

Chain of Insulin receptor (P15127 27-759 limits assumed): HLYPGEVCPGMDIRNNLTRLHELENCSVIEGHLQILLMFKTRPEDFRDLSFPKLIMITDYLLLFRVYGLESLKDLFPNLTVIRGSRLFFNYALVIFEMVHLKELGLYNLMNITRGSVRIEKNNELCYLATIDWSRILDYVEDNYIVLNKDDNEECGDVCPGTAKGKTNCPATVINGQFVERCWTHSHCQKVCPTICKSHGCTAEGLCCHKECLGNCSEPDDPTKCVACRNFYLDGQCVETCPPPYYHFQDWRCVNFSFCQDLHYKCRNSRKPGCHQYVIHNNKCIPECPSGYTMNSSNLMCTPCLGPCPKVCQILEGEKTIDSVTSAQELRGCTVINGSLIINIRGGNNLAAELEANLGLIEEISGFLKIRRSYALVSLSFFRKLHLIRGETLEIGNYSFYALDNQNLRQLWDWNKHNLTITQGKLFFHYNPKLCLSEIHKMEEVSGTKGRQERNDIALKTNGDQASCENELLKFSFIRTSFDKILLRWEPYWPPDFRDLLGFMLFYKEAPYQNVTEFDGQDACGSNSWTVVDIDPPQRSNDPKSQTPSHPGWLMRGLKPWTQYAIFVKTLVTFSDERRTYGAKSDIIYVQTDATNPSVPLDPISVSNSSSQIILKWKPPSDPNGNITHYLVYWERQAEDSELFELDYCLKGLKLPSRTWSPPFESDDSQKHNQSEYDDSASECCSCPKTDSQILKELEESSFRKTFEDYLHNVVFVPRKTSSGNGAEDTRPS
Chain of Insulin receptor (P15127 764-1383 limits assumed): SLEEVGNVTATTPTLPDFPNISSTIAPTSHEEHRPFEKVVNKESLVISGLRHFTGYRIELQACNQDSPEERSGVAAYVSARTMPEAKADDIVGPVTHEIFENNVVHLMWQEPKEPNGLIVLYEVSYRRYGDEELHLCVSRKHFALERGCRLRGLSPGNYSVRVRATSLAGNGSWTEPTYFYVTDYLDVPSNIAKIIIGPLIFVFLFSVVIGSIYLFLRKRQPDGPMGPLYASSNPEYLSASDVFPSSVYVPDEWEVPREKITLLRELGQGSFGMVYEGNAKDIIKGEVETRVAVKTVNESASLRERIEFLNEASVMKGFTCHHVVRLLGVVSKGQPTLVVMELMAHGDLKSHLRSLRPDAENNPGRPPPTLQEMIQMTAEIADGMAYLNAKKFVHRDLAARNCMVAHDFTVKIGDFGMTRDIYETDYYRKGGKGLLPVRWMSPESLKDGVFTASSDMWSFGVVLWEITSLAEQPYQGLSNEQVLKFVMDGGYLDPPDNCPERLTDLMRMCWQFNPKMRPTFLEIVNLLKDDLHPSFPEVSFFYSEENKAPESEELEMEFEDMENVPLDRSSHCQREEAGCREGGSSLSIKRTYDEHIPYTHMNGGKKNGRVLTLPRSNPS
Chain of D(1A) dopamine receptor (P21728 whole entry): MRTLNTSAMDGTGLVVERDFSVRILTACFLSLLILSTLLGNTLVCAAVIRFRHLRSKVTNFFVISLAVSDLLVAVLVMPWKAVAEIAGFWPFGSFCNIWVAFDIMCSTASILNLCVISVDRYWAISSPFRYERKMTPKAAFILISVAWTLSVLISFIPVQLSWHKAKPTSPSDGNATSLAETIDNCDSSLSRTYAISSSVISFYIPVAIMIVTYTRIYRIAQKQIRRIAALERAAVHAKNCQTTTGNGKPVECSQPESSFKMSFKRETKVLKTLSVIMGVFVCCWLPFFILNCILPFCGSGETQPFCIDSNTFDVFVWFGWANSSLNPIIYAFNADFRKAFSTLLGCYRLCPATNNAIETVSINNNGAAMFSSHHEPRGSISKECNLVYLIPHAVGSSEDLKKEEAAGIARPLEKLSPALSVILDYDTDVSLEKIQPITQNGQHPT
Chain of Prostaglandin G/H synthase 1 (P23219 whole entry): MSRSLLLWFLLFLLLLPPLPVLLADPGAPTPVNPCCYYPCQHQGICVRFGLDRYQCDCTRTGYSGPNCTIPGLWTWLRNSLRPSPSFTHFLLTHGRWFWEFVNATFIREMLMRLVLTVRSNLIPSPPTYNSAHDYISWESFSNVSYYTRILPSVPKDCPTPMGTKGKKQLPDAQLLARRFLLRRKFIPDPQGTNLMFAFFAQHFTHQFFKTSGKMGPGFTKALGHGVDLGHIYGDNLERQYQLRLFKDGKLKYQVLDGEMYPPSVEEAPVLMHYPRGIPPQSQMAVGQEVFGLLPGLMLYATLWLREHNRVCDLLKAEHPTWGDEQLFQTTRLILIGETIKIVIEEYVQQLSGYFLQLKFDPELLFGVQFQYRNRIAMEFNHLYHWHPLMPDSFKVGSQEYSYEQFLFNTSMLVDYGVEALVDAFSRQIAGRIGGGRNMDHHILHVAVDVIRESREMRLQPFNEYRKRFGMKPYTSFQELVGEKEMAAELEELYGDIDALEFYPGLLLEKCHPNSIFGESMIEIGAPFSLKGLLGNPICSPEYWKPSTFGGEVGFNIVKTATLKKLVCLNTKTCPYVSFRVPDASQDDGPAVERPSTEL

The first series addresses T1, Cytochrome P450 1A2 (Homo sapiens, UniProt P05177).
T1 sequence (P05177 whole entry): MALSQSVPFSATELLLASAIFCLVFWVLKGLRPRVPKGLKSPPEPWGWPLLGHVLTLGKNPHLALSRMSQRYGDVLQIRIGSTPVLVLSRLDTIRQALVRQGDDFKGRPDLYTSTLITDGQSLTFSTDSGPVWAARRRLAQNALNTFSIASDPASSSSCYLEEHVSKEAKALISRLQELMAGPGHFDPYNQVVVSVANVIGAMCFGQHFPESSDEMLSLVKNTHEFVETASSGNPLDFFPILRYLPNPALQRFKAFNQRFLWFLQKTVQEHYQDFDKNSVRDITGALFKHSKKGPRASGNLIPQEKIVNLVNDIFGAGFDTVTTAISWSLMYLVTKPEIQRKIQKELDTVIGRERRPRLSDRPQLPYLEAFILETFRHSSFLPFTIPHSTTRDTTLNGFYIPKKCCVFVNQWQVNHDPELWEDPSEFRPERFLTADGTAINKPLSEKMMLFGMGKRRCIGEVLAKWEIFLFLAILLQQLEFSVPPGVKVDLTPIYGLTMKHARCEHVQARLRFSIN
Assay: not given
The note with it: bti-tn-5b1-4.
Regarding `CNS(=O)(=O)Cc1ccc2[nH]cc(CCN(C)C)c2c1`, the IC50 result was “Not Active” and the Ki entry is “Not Active”.
Regarding `CCOC(N)=O`, the IC50 entry was “Not Active” and the Ki result is recorded as “Not Active”.
Consider `CC1=C(CC(=O)O)c2cc(F)ccc2/C1=C\c1ccc(S(C)(=O)=O)cc1` [EXISULIND], for which the IC50 result is “Not Active” and the Ki result is given as “Not Active”.
For the compound `Nc1nc2c(c(=O)[nH]1)N(C=O)C(CNc1ccc(C(=O)N[C@@H](CCC(=O)O)C(=O)O)cc1)CN2` (some centres undefined) [LEUCOVORIN], the IC50 entry is “Not Active” and the Ki result is listed as “Not Active”.
Take `C[C@@H](O)[C@H]1C(=O)N2C(C(=O)O)=C(S[C@@H]3CN[C@H](C(=O)N(C)C)C3)[C@H](C)[C@H]12` [MEROPENEM]: the IC50 result is “Not Active” and the Ki entry is “Not Active”.
With `O=P(O)(O)C(O)(Cc1cccnc1)P(=O)(O)O` [RISEDRONIC ACID], the IC50 result was “Not Active” and the Ki entry is “Not Active”.

A further series has as its target cGMP-specific 3',5'-cyclic phosphodiesterase (Homo sapiens, UniProt O76074). The series is described as follows: DRUGMATRIX: Phosphodiesterase PDE5 enzyme inhibition (substrate: [3H]cGMP + cGMP). The class given is tissue-based. The note with it: platelet; Not Active = under 50% inhibition at 10 µM.
As for `CNS(=O)(=O)Cc1ccc2[nH]cc(CCN(C)C)c2c1`, the IC50 result is given as “Not Active”.
Take `CCOC(N)=O`: the IC50 result is recorded as “Not Active”.
On the same count and under the same terms, in the case of `CC1=C(CC(=O)O)c2cc(F)ccc2/C1=C\c1ccc(S(C)(=O)=O)cc1` [EXISULIND] it was “Not Active”.
The same measure, in the same setting: then `Nc1nc2c(c(=O)[nH]1)N(C=O)C(CNc1ccc(C(=O)N[C@@H](CCC(=O)O)C(=O)O)cc1)CN2` (some centres undefined) [LEUCOVORIN], with “Not Active”; and `C[C@@H](O)[C@H]1C(=O)N2C(C(=O)O)=C(S[C@@H]3CN[C@H](C(=O)N(C)C)C3)[C@H](C)[C@H]12` [MEROPENEM], with “Not Active”.
Still for that read-out and setting: then `O=P(O)(O)C(O)(Cc1cccnc1)P(=O)(O)O` [RISEDRONIC ACID], with “Not Active”.

System in another series: not listed separately
In words: DRUGMATRIX: ATPase, Na+/K+ enzyme inhibition (substrate: ATP). It counts as tissue-based, Sus scrofa, Heart. The note with it: Not Active = under 50% inhibition at 10 µM.
As to `CNS(=O)(=O)Cc1ccc2[nH]cc(CCN(C)C)c2c1`, the IC50 result is recorded as “Not Active” and the Ki entry is listed as “Not Active”.
On to `CCOC(N)=O`, for which the IC50 result is given as “Not Active” and the Ki entry was “Not Active”.
As to `CC1=C(CC(=O)O)c2cc(F)ccc2/C1=C\c1ccc(S(C)(=O)=O)cc1` [EXISULIND], the IC50 entry is “Not Active” and the Ki result is “Not Active”.
Consider `Nc1nc2c(c(=O)[nH]1)N(C=O)C(CNc1ccc(C(=O)N[C@@H](CCC(=O)O)C(=O)O)cc1)CN2` (some centres undefined) [LEUCOVORIN], for which the IC50 entry was “Not Active” and the Ki result is given as “Not Active”.
For `C[C@@H](O)[C@H]1C(=O)N2C(C(=O)O)=C(S[C@@H]3CN[C@H](C(=O)N(C)C)C3)[C@H](C)[C@H]12` [MEROPENEM], the IC50 result is reported as “Not Active” and the Ki entry is reported as “Not Active”.
`O=P(O)(O)C(O)(Cc1cccnc1)P(=O)(O)O` [RISEDRONIC ACID]: the IC50 result is reported as “Not Active” and the Ki entry was “Not Active”.

The target in the next series is Cytochrome P450 3A4 (Homo sapiens, UniProt P08684). Note: in other assays of this panel Not Active means under 50% inhibition at 10 µM.
Chain of Cytochrome P450 3A4 (P08684 whole entry): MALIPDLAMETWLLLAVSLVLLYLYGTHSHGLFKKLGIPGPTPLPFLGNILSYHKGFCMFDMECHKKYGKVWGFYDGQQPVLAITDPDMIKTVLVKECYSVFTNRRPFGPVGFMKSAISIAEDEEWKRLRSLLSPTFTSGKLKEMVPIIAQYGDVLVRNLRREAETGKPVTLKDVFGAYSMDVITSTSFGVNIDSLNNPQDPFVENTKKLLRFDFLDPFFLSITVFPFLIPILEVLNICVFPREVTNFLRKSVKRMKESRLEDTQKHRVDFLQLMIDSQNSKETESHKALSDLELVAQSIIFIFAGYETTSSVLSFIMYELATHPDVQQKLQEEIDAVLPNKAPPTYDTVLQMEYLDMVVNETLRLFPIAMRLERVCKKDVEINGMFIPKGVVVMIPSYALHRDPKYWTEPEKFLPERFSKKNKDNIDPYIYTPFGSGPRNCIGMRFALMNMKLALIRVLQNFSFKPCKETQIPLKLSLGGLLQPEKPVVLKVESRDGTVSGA
Assay: not given
The conditions noted are these: bti-tn-5b1-4.
On to `CNS(=O)(=O)Cc1ccc2[nH]cc(CCN(C)C)c2c1`, for which the IC50 entry is given as “Not Active” and the Ki entry is recorded as “Not Active”.
Consider `CCOC(N)=O`, for which the IC50 result is given as “Not Active” and the Ki entry is given as “Not Active”.
In the case of `CC1=C(CC(=O)O)c2cc(F)ccc2/C1=C\c1ccc(S(C)(=O)=O)cc1` [EXISULIND], the IC50 entry is “Not Active” and the Ki result was “Not Active”.
Turning to `Nc1nc2c(c(=O)[nH]1)N(C=O)C(CNc1ccc(C(=O)N[C@@H](CCC(=O)O)C(=O)O)cc1)CN2` (some centres undefined) [LEUCOVORIN], the IC50 result is reported as “Not Active” and the Ki result is “Not Active”.
On to `C[C@@H](O)[C@H]1C(=O)N2C(C(=O)O)=C(S[C@@H]3CN[C@H](C(=O)N(C)C)C3)[C@H](C)[C@H]12` [MEROPENEM], for which the IC50 entry is recorded as “Not Active” and the Ki entry is on record as “Not Active”.
In the case of `O=P(O)(O)C(O)(Cc1cccnc1)P(=O)(O)O` [RISEDRONIC ACID], the IC50 entry is recorded as “Not Active” and the Ki entry is on record as “Not Active”.

A further series addresses D(1A) dopamine receptor (Homo sapiens, UniProt P21728). In words: DRUGMATRIX: Dopamine D1 radioligand binding (ligand: [3H] SCH-23390). It counts as cell membranes, CHO, Membrane. The conditions noted are these: cho; Not Active = under 50% inhibition at 10 µM.
Turning to `CNS(=O)(=O)Cc1ccc2[nH]cc(CCN(C)C)c2c1`, the IC50 entry was “Not Active”.
Same read-out and setting: in the case of `CCOC(N)=O` it was “Not Active”; in that of `CC1=C(CC(=O)O)c2cc(F)ccc2/C1=C\c1ccc(S(C)(=O)=O)cc1` [EXISULIND], “Not Active”.
Same read-out and setting: in the case of `Nc1nc2c(c(=O)[nH]1)N(C=O)C(CNc1ccc(C(=O)N[C@@H](CCC(=O)O)C(=O)O)cc1)CN2` (some centres undefined) [LEUCOVORIN] it was “Not Active”.
Still for that read-out and setting: then `C[C@@H](O)[C@H]1C(=O)N2C(C(=O)O)=C(S[C@@H]3CN[C@H](C(=O)N(C)C)C3)[C@H](C)[C@H]12` [MEROPENEM], with “Not Active”; and `O=P(O)(O)C(O)(Cc1cccnc1)P(=O)(O)O` [RISEDRONIC ACID], with “Not Active”.

A further series has as its target Prostaglandin G/H synthase 1 (Homo sapiens, UniProt P23219). In words: biochemical. It counts as tissue-based, Platelet. The conditions noted are these: platelet.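 Note: inhibition of COX-1 enzyme activity, with arachidonic acid supplied as substrate; in other assays of this panel Not Active means under 50% inhibition at 10 µM.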
As for `CNS(=O)(=O)Cc1ccc2[nH]cc(CCN(C)C)c2c1`, the IC50 result is reported as “Not Active”.
Still for that read-out and setting: then `CCOC(N)=O`, with “Not Active”; and `CC1=C(CC(=O)O)c2cc(F)ccc2/C1=C\c1ccc(S(C)(=O)=O)cc1` [EXISULIND], with “Not Active”.
Consider `Nc1nc2c(c(=O)[nH]1)N(C=O)C(CNc1ccc(C(=O)N[C@@H](CCC(=O)O)C(=O)O)cc1)CN2` (some centres undefined) [LEUCOVORIN], for which the IC50 entry is given as “Not Active”.
Same read-out and setting: in the case of `C[C@@H](O)[C@H]1C(=O)N2C(C(=O)O)=C(S[C@@H]3CN[C@H](C(=O)N(C)C)C3)[C@H](C)[C@H]12` [MEROPENEM] it was “Not Active”; in that of `O=P(O)(O)C(O)(Cc1cccnc1)P(=O)(O)O` [RISEDRONIC ACID], “Not Active”.

System in a further series: not listed separately
The series is described as follows: DRUGMATRIX: GABAA, Chloride Channel, TBOB radioligand binding (ligand: [3H] TBOB). The class given is cell membranes, Rattus norvegicus, Wistar, Cerebral cortex, Membrane. The conditions noted are these: Not Active = under 50% inhibition at 10 µM.
Turning to `CNS(=O)(=O)Cc1ccc2[nH]cc(CCN(C)C)c2c1`, the IC50 entry is “Not Active” and the Ki entry is recorded as “Not Active”.
With `CCOC(N)=O`, the IC50 entry is reported as “Not Active” and the Ki result is recorded as “Not Active”.
As to `CC1=C(CC(=O)O)c2cc(F)ccc2/C1=C\c1ccc(S(C)(=O)=O)cc1` [EXISULIND], the IC50 entry is listed as “Not Active” and the Ki result is on record as “Not Active”.
With `Nc1nc2c(c(=O)[nH]1)N(C=O)C(CNc1ccc(C(=O)N[C@@H](CCC(=O)O)C(=O)O)cc1)CN2` (some centres undefined) [LEUCOVORIN], the IC50 entry was “Not Active” and the Ki entry was “Not Active”.
For the compound `C[C@@H](O)[C@H]1C(=O)N2C(C(=O)O)=C(S[C@@H]3CN[C@H](C(=O)N(C)C)C3)[C@H](C)[C@H]12` [MEROPENEM], the IC50 result is given as “Not Active” and the Ki result is recorded as “Not Active”.
In the case of `O=P(O)(O)C(O)(Cc1cccnc1)P(=O)(O)O` [RISEDRONIC ACID], the IC50 entry is given as “Not Active” and the Ki result is recorded as “Not Active”.

System in the next series: not listed separately
In words: DRUGMATRIX: Nicotinic Acetylcholine radioligand binding (ligand: [125I] Epibatidine). The conditions noted are these: imr-32; Not Active = under 50% inhibition at 10 µM. The class given is cell membranes, Membrane.
As to `CNS(=O)(=O)Cc1ccc2[nH]cc(CCN(C)C)c2c1`, the IC50 result is “Not Active” and the Ki entry was “Not Active”.
As to `CCOC(N)=O`, the IC50 entry is reported as “Not Active” and the Ki result was “Not Active”.
As for `CC1=C(CC(=O)O)c2cc(F)ccc2/C1=C\c1ccc(S(C)(=O)=O)cc1` [EXISULIND], the IC50 entry is listed as “Not Active” and the Ki result is “Not Active”.
Regarding `Nc1nc2c(c(=O)[nH]1)N(C=O)C(CNc1ccc(C(=O)N[C@@H](CCC(=O)O)C(=O)O)cc1)CN2` (some centres undefined) [LEUCOVORIN], the IC50 entry is “Not Active” and the Ki entry is given as “Not Active”.
For the compound `C[C@@H](O)[C@H]1C(=O)N2C(C(=O)O)=C(S[C@@H]3CN[C@H](C(=O)N(C)C)C3)[C@H](C)[C@H]12` [MEROPENEM], the IC50 result was “Not Active” and the Ki entry is given as “Not Active”.
On to `O=P(O)(O)C(O)(Cc1cccnc1)P(=O)(O)O` [RISEDRONIC ACID], for which the IC50 entry is recorded as “Not Active” and the Ki result is “Not Active”.

A further series has as its target Insulin receptor (Rattus norvegicus, UniProt P15127). Note: in other assays of this panel Not Active means under 50% inhibition at 10 µM.
Assay: not given
It counts as cell membranes, Wistar, Liver, Membrane.
Settings: not given
With `CNS(=O)(=O)Cc1ccc2[nH]cc(CCN(C)C)c2c1`, the IC50 result was “Not Active”.
As to `CCOC(N)=O`, the IC50 result is listed as “Not Active”.
Still for that read-out and setting: then `CC1=C(CC(=O)O)c2cc(F)ccc2/C1=C\c1ccc(S(C)(=O)=O)cc1` [EXISULIND], with “Not Active”; and `Nc1nc2c(c(=O)[nH]1)N(C=O)C(CNc1ccc(C(=O)N[C@@H](CCC(=O)O)C(=O)O)cc1)CN2` (some centres undefined) [LEUCOVORIN], with “Not Active”; and `C[C@@H](O)[C@H]1C(=O)N2C(C(=O)O)=C(S[C@@H]3CN[C@H](C(=O)N(C)C)C3)[C@H](C)[C@H]12` [MEROPENEM], with “Not Active”.
Same read-out and setting: in the case of `O=P(O)(O)C(O)(Cc1cccnc1)P(=O)(O)O` [RISEDRONIC ACID] it was “Not Active”.
